Assay results reported in US9181255B2, “Fused heteroaromatic pyrrolidinones as SYK inhibitors” (Takeda Pharmaceutical Company Limited, priority 2009, dated 2015).

molecular target: SYK (Homo sapiens, UniProt P43405); test: SYK inhibition assay: SYK-mediated phosphorylation of FAM-labeled substrate (Caliper microfluidic); format: biochemical; details: read-out: SYK Inhibition (pIC50) (converted)

| Compound | IC50 |
| --- | --- |
| Cc1cccc(Nc2nc(NCC(N)=O)nc3c2C(=O)NC3)c1 [Example 42, 2-(5-oxo-4-(m-tolylamino)-6,7-dihydro-5H-pyrrolo[3,4-d]pyrimidin-2-ylamino)acetamide] | 158 nM |
| Cc1csc(-c2nc(N[C@H](CC(C)C)C(N)=O)c(F)c3c2C(=O)NC3)c1 [Example 109, (R)-2-(7-Fluoro-4-(4-methylthiophen-2-yl)-3-oxo-2,3-dihydro-1H-pyrrolo[3,4-c]pyridin-6-ylamino)-4-methylpentanamide] | 3.16 nM |
| Cc1cccc(Nc2nc(NC3CCCCC3)nc3c2C(=O)NC3)c1 [Example 10, 2-(Cyclohexylamino)-4-(m-tolylamino)-6,7-dihydro-5H-pyrrolo[3,4-d]pyrimidin-5-one] | > 20000 nM |
| N[C@H]1CCCC[C@H]1Nc1nc2c(c(-c3cnn(Cc4ccccc4)c3)n1)C(=O)NC2 [Example 19, 2-((1R,2S)-2-Aminocyclohexylamino)-4-(1-benzyl-1H-pyrazol-4-yl)-6,7-dihydro-5H-pyrrolo[3,4-d]pyrimidin-5-one] | 251 nM |
| Cc1cccc(Nc2nc(NCC3CCCN3)nc3c2C(=O)NC3)c1 (stereo not shown) [Example 44, 2-(Pyrrolidin-2-ylmethylamino)-4-(m-tolylamino)-6,7-dihydro-5H-pyrrolo[3,4-d]pyrimidin-5-one] | 631 nM |
| CCn1cc(-c2nc(N[C@@H]3CCCC[C@@H]3N)nc3c2C(=O)NC3)cn1 [Example 18, 2-((1R,2S)-2-Aminocyclohexylamino)-4-(1-ethyl-1H-pyrazol-4-yl)-6,7-dihydro-5H-pyrrolo[3,4-d]pyrimidin-5-one] | 79.4 nM |
| Cc1ccc(-c2nc(N[C@H](CC(C)C)C(N)=O)c(F)c3c2C(=O)NC3)o1 [Example 115, (R)-2-(7-Fluoro-4-(5-methylfuran-2-yl)-3-oxo-2,3-dihydro-1H-pyrrolo[3,4-c]pyridin-6-ylamino)-4-methylpentanamide] | 316 nM |
| CC(C)C[C@@H](Nc1nc(-c2ccns2)c2c(c1F)CNC2=O)C(N)=O [Example 119, (R)-2-(7-Fluoro-4-(isothiazol-5-yl)-3-oxo-2,3-dihydro-1H-pyrrolo[3,4-c]pyridin-6-ylamino)-4-methylpentanamide] | 15.8 nM |
| N[C@H]1CCCC[C@H]1Nc1nc2c(c(Nc3cccc(Cl)c3)n1)C(=O)NC2 [Example 3, 2-((1R,2S)-2-Aminocyclohexylamino)-4-(3-chlorophenylamino)-6,7-dihydro-5H-pyrrolo[3,4-d]pyrimidin-5-one] | 25.1 nM |
| COC[C@H](N)CNc1cc2c(c(Nc3cccc(C)c3)n1)C(=O)NC2 [Example 77, (R)-6-(2-Amino-3-methoxypropylamino)-4-(m-tolylamino)-1H-pyrrolo[3,4-c]pyridin-3(2H)-one] | 31.6 nM |
| COCCn1cc(-c2nc(N[C@@H]3CCCC[C@@H]3N)nc3c2C(=O)NC3)cn1 [Example 22, 2-((1R,2S)-2-Aminocyclohexylamino)-4-(1-(2-methoxyethyl)-1H-pyrazol-4-yl)-6,7-dihydro-5H-pyrrolo[3,4-d]pyrimidin-5-one] | 2000 nM |
| Cc1cccc(Nc2nc(NCC(N)C(F)(F)F)cc3c2C(=O)NC3)c1 (stereo not shown) [Example 56, 6-(2-Amino-3,3,3-trifluoropropylamino)-4-(m-tolylamino)-1H-pyrrolo[3,4-c]pyridin-3(2H)-one] | 2510 nM |
| N[C@H]1COCC[C@H]1Nc1nc(-c2coc3ccccc23)c2c(c1F)CNC2=O [Example 94, 6-((3R,4R)-3-Aminotetrahydro-2H-pyran-4-ylamino)-4-(benzofuran-3-yl)-7-fluoro-1H-pyrrolo[3,4-c]pyridin-3(2H)-one] | 3.16 nM |
| Cc1c(-c2nc(N[C@@H]3CCCC[C@@H]3N)nc3c2C(=O)NC3)cnn1C [Example 46, 2-((1R,2S)-2-Aminocyclohexylamino)-4-(1,5-dimethyl-1H-pyrazol-4-yl)-6,7-dihydro-5H-pyrrolo[3,4-d]pyrimidin-5-one] | 1580 nM |
| CC(C)C[C@@H](Nc1nc(-c2cnn3ccccc23)c2c(c1F)CNC2=O)C(N)=O [Example 74, (R)-2-(7-Fluoro-3-oxo-4-(pyrazolo[1,5-a]pyridin-3-yl)-2,3-dihydro-1H-pyrrolo[3,4-c]pyridin-6-ylamino)-4-methylpentanamide] | 5.01 nM |
| Cn1cc(-c2nc(N3CC[C@H](N)C3)c(F)c3c2C(=O)NC3)cn1 [Example 95, (S)-6-(3-Aminopyrrolidin-1-yl)-7-fluoro-4-(1-methyl-1H-pyrazol-4-yl)-1H-pyrrolo[3,4-c]pyridin-3(2H)-one] | 3980 nM |

| Compound | IC50 |
| --- | --- |
| Cc1cc(Nc2nc(N[C@@H]3CCCC[C@@H]3N)cc3c2C(=O)NC3)ccc1F [Example 24, 6-((1R,2S)-2-Aminocyclohexylamino)-4-(4-fluoro-3-methylphenylamino)-1H-pyrrolo[3,4-c]pyridin-3(2H)-one] | 25.1 nM |
| CC(C)C[C@@H](Nc1nc(-c2cnn(C)c2)c2c(c1F)CNC2=O)C(N)=O [Example 70, (R)-2-(7-Fluoro-4-(1-methyl-1H-pyrazol-4-yl)-3-oxo-2,3-dihydro-1H-pyrrolo[3,4-c]pyridin-6-ylamino)-4-methylpentanamide] | 1.58 nM |
| Cc1cccc(Nc2nc(N[C@@H]3CCCC[C@@H]3N)c(-c3ccnn3C)c3c2C(=O)NC3)c1 [Example 84, 6-((1R,2S)-2-Aminocyclohexylamino)-7-(1-methyl-1H-pyrazol-5-yl)-4-(m-tolylamino)-1H-pyrrolo[3,4-c]pyridin-3(2H)-one] | 20 nM |
| N[C@H]1CCCC[C@H]1Nc1nc2c(c(-c3cnn(-c4ccc(F)cc4)c3)n1)C(=O)NC2 [Example 100, 2-((1R,2S)-2-Aminocyclohexylamino)-4-(1-(4-fluorophenyl)-1H-pyrazol-4-yl)-6,7-dihydro-5H-pyrrolo[3,4-d]pyrimidin-5-one] | 158 nM |
| N[C@H]1COCC[C@H]1Nc1nc(-c2cnn3ccccc23)c2c(c1F)CNC2=O [Example 92, 6-((3R,4R)-3-Aminotetrahydro-2H-pyran-4-ylamino)-7-fluoro-4-(pyrazolo[1,5-a]pyridin-3-yl)-1H-pyrrolo[3,4-c]pyridin-3(2H)-one] | 12.6 nM |
| N[C@H]1CCCC[C@H]1Nc1nc2c(c(Nc3cccc(F)c3)n1)C(=O)NC2 [Example 2, 2-((1R,2S)-2-Aminocyclohexylamino)-4-(3-fluorophenylamino)-6,7-dihydro-5H-pyrrolo[3,4-c]pyrimidin-5-one] | 126 nM |
| N[C@H]1COCC[C@H]1Nc1nc(-n2cnc(C(F)(F)F)c2)c2c(c1F)CNC2=O [Example 130, 6-((3R,4R)-3-Aminotetrahydro-2H-pyran-4-ylamino)-7-fluoro-4-(4-(trifluoromethyl)-1H-imidazol-1-yl)-1H-pyrrolo[3,4-c]pyridin-3(2H)-one] | 10000 nM |
| Cn1cc(-c2nc(N[C@@H]3CCOC[C@@H]3N)c(F)c3c2C(=O)NC3)cn1 [Example 65, 6-((3R,4R)-3-Aminotetrahydro-2H-pyran-4-ylamino)-7-fluoro-4-(1-methyl-1H-pyrazol-4-yl)-1H-pyrrolo[3,4-c]pyridin-3(2H)-one] | 10 nM |
| Cn1cc(-c2nc(N[C@@H]3CCCC[C@@H]3N)c(F)c3c2C(=O)NC3(C)C)cn1 [Example 120, 6-((1R,2S)-2-Aminocyclohexylamino)-7-fluoro-1,1-dimethyl-4-(1-methyl-1H-pyrazol-4-yl)-1H-pyrrolo[3,4-c]pyridin-3(2H)-one] | 251 nM |
| CC(C)C[C@@H](Nc1nc(-c2cc(C#N)cs2)c2c(c1F)CNC2=O)C(N)=O [Example 117, (R)-2-(4-(4-Cyanothiophen-2-yl)-7-fluoro-3-oxo-2,3-dihydro-1H-pyrrolo[3,4-c]pyridin-6-ylamino)-4-methylpentanamide] | 12.6 nM |
| Cn1cc(-c2nc(N[C@@H]3CCCC[C@@H]3N)cc3c2C(=O)NC3)cn1 [Example 26, 6-((1R,2S)-2-Aminocyclohexylamino)-4-(1-methyl-1H-pyrazol-4-yl)-1H-pyrrolo[3,4-c]pyridin-3(2H)-one] | 31.6 nM |
| N[C@H]1CCCC[C@H]1Nc1nc(-c2cnn(C(F)F)c2)c2c(c1F)CNC2=O [Example 62, 6-((1R,2S)-2-Aminocyclohexylamino)-4-(1-(difluoromethyl)-1H-pyrazol-4-yl)-7-fluoro-1H-pyrrolo[3,4-c]pyridin-3(2H)-one] | 10 nM |
| N[C@H]1CCCC[C@H]1Nc1nc(-c2cnn(C3CC3)c2)c2c(c1F)CNC2=O [Example 63, 6-((1R,2S)-2-Aminocyclohexylamino)-4-(1-cyclopropyl-1H-pyrazol-4-yl)-7-fluoro-1H-pyrrolo[3,4-c]pyridin-3(2H)-one] | 7.94 nM |
| COC[C@H](N)CNc1nc(Nc2cccc(C)c2)c2c(c1C#N)CNC2=O [Example 78, (R)-6-(2-Amino-3-methoxypropylamino)-3-oxo-4-(m-tolylamino)-2,3-dihydro-1H-pyrrolo[3,4-c]pyridine-7-carbonitrile] | 3.98 nM |
| CC(C)C[C@@H](Nc1nc(-c2cncs2)c2c(c1F)CNC2=O)C(N)=O [Example 118, (R)-2-(7-Fluoro-3-oxo-4-(thiazol-5-yl)-2,3-dihydro-1H-pyrrolo[3,4-c]pyridin-6-ylamino)-4-methylpentanamide] | 12.6 nM |
